The test system of this assay is TPA-induced ear edema. Nature of the assay: TPA ear edema model. Conditions: for Systemic Dose (% change vs. vehicle) 5 mg/kg: systemic 5 mg/kg; for Topical Dose (% change vs. vehicle) 0.1%: topical 0.1%; for Topical Dose (% change vs. vehicle) 0.1% / Topical Dose (% change vs. vehicle) 1.0% / Topical Dose (% change vs. vehicle) 5 0%: ear biopsy weight six hours after TPA; for Topical Dose (% change vs. vehicle) 1.0%: topical 1.0%.

The mark [1] stands for this setting: formulated in 50% ethanol/5 mM lactate buffer (*).
Where [2] appears, read: topical 5 0%, formulated in 50% ethanol/5 mM lactate buffer (*).
Where [3] appears, read: topical 5.0%, formulated in 95% ethanol.

Consider 20 compounds from patent US8933029B2, “Antimicrobial and anti-inflammatory peptides” (Carrus Capital Corporation, priority 2001, dated 2015).

Marks after values point to notes of the source that are not given here. Ends that are not written are not given here.

On to `C[C@@H]1C[C@H]2[C@@H]3CCC4=CC(=O)C=C[C@]4(C)[C@@]3(F)[C@@H](O)C[C@]2(C)[C@@]1(O)C(=O)CO` [Dexamethasone, dexamethasone, reference compound], for which the “Systemic Dose (% change vs. vehicle) 5 mg/kg” value is more than −80%. Further, the “Topical Dose (% change vs. vehicle) 0.1%” value under setting [1] was >−90* %. In addition, the “Topical Dose (% change vs. vehicle) 0.1%” value (formulated in 95% ethanol) is on record as −92%.

For `CC[C@H]1OC(=O)[C@H](C)[C@@H](O[C@H]2C[C@@](C)(OC)[C@@H](O)[C@H](C)O2)[C@H](C)[C@@H](O[C@@H]2O[C@H](C)C[C@H](N(C)C)[C@H]2O)[C@](C)(O)C[C@@H](C)C(=O)[C@H](C)[C@@H](O)[C@]1(C)O` [Erythromycin, erythromycin, reference compound], under setting [1], the “Topical Dose (% change vs. vehicle) 0.1%” value was −20* % and the “Topical Dose (% change vs. vehicle) 1.0%” value is listed as −67* %. Further, the “Topical Dose (% change vs. vehicle) 5 0%” value under setting [2] is reported as −87* %.

“A-ILTWPWWPWTTT-CN (not fully specified; N-terminal A, C-terminal nitrile/amide) [Peptide 11B24ACN]”: the “Topical Dose (% change vs. vehicle) 5 0%” value under setting [3] is reported as −75%.

On to “F R F F K P K F R F P K F (FRFFKPKFRFPKF-{CN}) [Peptide 11J33CN]”, for which the “Topical Dose (% change vs. vehicle) 1.0%” value (formulated in 95% ethanol) was −52%.

H-GWRFLKLAWRFLKL-OH [Peptide 11J97]: where the note is “formulated in 95% ethanol”, the “Topical Dose (% change vs. vehicle) 0.1%” value is given as “+33%” and the “Topical Dose (% change vs. vehicle) 1.0%” value is −29%. The “Topical Dose (% change vs. vehicle) 5 0%” value under setting [3] was −49%.

On to H-GWRFLKLAWRFLKLRR-OH [Peptide 11J136], for which, for the setting “formulated in 95% ethanol”, the “Topical Dose (% change vs. vehicle) 0.1%” value is recorded as −12% and the “Topical Dose (% change vs. vehicle) 1.0%” value is reported as −54%.

For the compound “H-ILRWVWRIL-CN (H-ILRWVWRIL-{CN}) [Peptide 11J148CN]”, under “formulated in 95% ethanol”, the “Topical Dose (% change vs. vehicle) 0.1%” value was −33% and the “Topical Dose (% change vs. vehicle) 1.0%” value is listed as −74%.

As for “H-ILRWVWRILR-CN (H-ILRWVWRILR-{CN}; not fully specified) [Peptide 11J131CN]”, where the note is “formulated in 95% ethanol”, the “Topical Dose (% change vs. vehicle) 0.1%” value was −20% and the “Topical Dose (% change vs. vehicle) 1.0%” value is −43%.

For “H-L(Orn)FL(Orn)W AF(Orn)L W(Orn)L-CN [Peptide 11J84CN]”, for the setting “formulated in 95% ethanol”, the “Topical Dose (% change vs. vehicle) 0.1%” value is −14% and the “Topical Dose (% change vs. vehicle) 1.0%” value is −35%.

Turning to “H-LRFLKW(Aib)WRFLKL-CN [Peptide 11J105CN]”, under “formulated in 95% ethanol”, the “Topical Dose (% change vs. vehicle) 0.1%” value is given as −4% and the “Topical Dose (% change vs. vehicle) 1.0%” value is listed as −51%.

Take H-RILRW(Aib)WRILR-CN [Peptide 11J157CN]: where the note is “formulated in 95% ethanol”, the “Topical Dose (% change vs. vehicle) 0.1%” value was “+5%” and the “Topical Dose (% change vs. vehicle) 1.0%” value is on record as −55%.

Turning to “H-RILRWVWRILR-CN (H-RILRWVWRILR-{CN}) [Peptide 11J115CN]”, where the note is “formulated in 95% ethanol”, the “Topical Dose (% change vs. vehicle) 0.1%” value was −1% and the “Topical Dose (% change vs. vehicle) 1.0%” value is recorded as −57%.

As to “I L E E W P W W P W E E E (ILEEWPWWPWEEE-{CN}) [Peptide 11B11CN]”, the “Topical Dose (% change vs. vehicle) 5 0%” value under setting [2] was −64* %.

Consider “I L Q W P W W P W Q Q Q (ILQWPWWPWQQQ-{CN}) [Peptide 11B38CN]”, for which, under “formulated in 95% ethanol”, the “Topical Dose (% change vs. vehicle) 1.0%” value is given as −8%. For the same compound, under setting [3], the “Topical Dose (% change vs. vehicle) 5 0%” value is −51%.

With “I L T W P W W P W T T T (ILTWPWWPWTTT-{CN}) [Peptide 11B24CN]”, the “Topical Dose (% change vs. vehicle) 1.0%” value (formulated in 95% ethanol) is reported as −32%. Under setting [3], the “Topical Dose (% change vs. vehicle) 5 0%” value was −64%.

Turning to “ILRWVWWVWRRK-NH2 [Peptide 11F4CN, I L R W V W W V W R R K]”, the “Topical Dose (% change vs. vehicle) 1.0%” value (formulated in 95% ethanol) was −55%.

For “L R F L K W A F R L W K L (LRFLKWAFRLWKL-{CN}) [Peptide 11J45CN]”, the “Topical Dose (% change vs. vehicle) 1.0%” value (formulated in 95% ethanol) is recorded as −69%.

As for “R L G G G G G G R R (RLGGGGGGRR-{CN}) [Peptide 11F83CN]”, under “formulated in 95% ethanol”, the “Topical Dose (% change vs. vehicle) 1.0%” value was −28%.

Take “R L L V W W V L R R (RLLVWWVLRR-{CN}) [Peptide 11F82CN]”: the “Topical Dose (% change vs. vehicle) 1.0%” value (formulated in 95% ethanol) is on record as −62%.

Take “R L W V V V V W R R (RLWVVVVWRR-{CN}) [Peptide 11F65CN]”: the “Systemic Dose (% change vs. vehicle) 5 mg/kg” value was −15%. In addition, the “Topical Dose (% change vs. vehicle) 1.0%” value (formulated in 95% ethanol) is −94%.
